Here are results for 18 molecules from ChEMBL document CHEMBL4138077, “Rational design, synthesis and biological screening of triazine-triazolopyrimidine hybrids as multitarget anti-Alzheimer agents” (Eur J Med Chem, 2017).

Molecules are shown by their SMILES. The source made the active and inactive calls. The calls are words filed in the database; no cut-off is given here.

Experiment [1] deals with T1, Acetylcholinesterase (Electrophorus electricus, UniProt O42275). Nature of the experiment: Inhibition of electric eel AChE using acetylthiocholine iodide as substrate preincubated for 5 mins followed by substrate addition measured after 2 mins by spectroscopy based Ellman's method. Background: In Ellman's method for cholinesterases, released thiocholine reacts with DTNB.

For experiment [2], the target named is Cholinesterase (Equus caballus, UniProt P81908). Nature of the experiment: Inhibition of equine serum BuChE using butyrylthiocholine iodide as substrate preincubated for 5 mins followed by substrate addition measured after 2 mins by spectroscopy based Ellman's method.
In experiment [3] the target is T2, Amyloid-beta precursor protein (Homo sapiens, UniProt P05067). Nature of the experiment: Inhibition of HFIP-pretreated amyloid beta (1 to 42 residues) (unknown origin) self aggregation at 25 uM after 24 hrs by ThT-based fluorometric method.
For experiment [4], the target named is T2, Amyloid-beta precursor protein.
Description: Inhibition of HFIP-pretreated amyloid beta (1 to 42 residues) (unknown origin) self aggregation after 24 hrs by ThT-based fluorometric method
Experiment [5] concerns the target T1, Acetylcholinesterase. Nature of the experiment: Mixed-type inhibition of electric eel AChE using varying levels of acetylthiocholine iodide as substrate preincubated for 15 mins followed by substrate addition by Lineweaver-Burk plot analysis.
Experiment [6] has as its target T2, Amyloid-beta precursor protein. Nature of the experiment: Inhibition of amyloid beta (1 to 42) (unknown origin) fibril formation at 25 uM after 24 hrs by uranyl acetate staining based transmission electron microscopic method.
For experiment [7] the target is unchanged. Nature of the experiment: Binding affinity to amyloid beta (1 to 42) (unknown origin) assessed as increase in alpha helix conformation at 10 uM after 12 hrs by CD spectroscopic method.
The target is the same in experiment [8]. Nature of the experiment: Binding affinity to amyloid beta (1 to 42) (unknown origin) assessed as decrease in beta sheet and random structure conformation at 10 uM after 12 hrs by CD spectroscopic method.
Experiment [9] in a line: Metal chelating activity of the compound assessed as formation of Zn2+-compound complex by measuring change in red shift in maximum absorption at 50 uM after 30 mins by UV-vis spectrophotometric method (reference value: […] nanometer).
A short description of experiment [10]: (§1) Metal chelating activity of the compound assessed as formation of Cu2+-compound complex by measuring change in red shift in maximum absorption at 50 uM after 30 mins by UV-vis spectrophotometric method (reference value: […] nanometer).
Experiment [11] can be described thus: Metal chelating activity of the compound assessed as formation of Fe2+-compound complex by measuring change in red shift in maximum absorption at 50 uM after 30 mins by UV-vis spectrophotometric method (reference value: […] nanometer).
Experiment [12] is described as follows: Metal chelating activity assessed as inhibition of Cu2+-induced amyloid beta (1 to 42 residues) aggregation at 50 uM after 24 hrs by thioflavin-T fluorescence assay.
Experiment [13] is described as follows: Metal chelating activity assessed as inhibition of Cu2+-induced amyloid beta (1 to 42 residues) aggregation by measuring reduction in amyloid fibrils at 50 uM after 24 hrs by uranyl acetate staining based transmission electron microscopic analysis.
A short description of experiment [14]: as §1. The source holds these as a separate data set.
Experiment [15] is described as follows: Metal chelating activity of the compound assessed as mole fraction of compound causing 1:1 stoichiometry for formation of Cu2+-compound complex at 50 uM after 30 mins by UV-vis spectrophotometric method.

Cholinesterase, sequence (P81908 whole entry, the tested form may be a part): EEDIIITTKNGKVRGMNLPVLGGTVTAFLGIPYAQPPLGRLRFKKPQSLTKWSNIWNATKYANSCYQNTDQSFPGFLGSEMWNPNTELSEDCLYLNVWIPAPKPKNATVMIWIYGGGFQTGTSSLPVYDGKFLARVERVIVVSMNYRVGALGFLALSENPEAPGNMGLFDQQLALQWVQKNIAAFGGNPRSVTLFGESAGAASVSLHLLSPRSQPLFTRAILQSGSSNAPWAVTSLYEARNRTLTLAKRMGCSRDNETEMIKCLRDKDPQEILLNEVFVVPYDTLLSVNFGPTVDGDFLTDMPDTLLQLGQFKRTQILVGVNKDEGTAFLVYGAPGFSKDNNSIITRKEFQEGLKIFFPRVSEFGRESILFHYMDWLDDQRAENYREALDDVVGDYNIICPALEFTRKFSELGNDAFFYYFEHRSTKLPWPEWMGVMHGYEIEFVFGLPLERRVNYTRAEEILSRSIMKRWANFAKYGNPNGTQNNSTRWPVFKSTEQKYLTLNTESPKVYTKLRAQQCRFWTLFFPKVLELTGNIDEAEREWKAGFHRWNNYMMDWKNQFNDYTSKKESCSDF
T1 sequence (O42275 whole entry): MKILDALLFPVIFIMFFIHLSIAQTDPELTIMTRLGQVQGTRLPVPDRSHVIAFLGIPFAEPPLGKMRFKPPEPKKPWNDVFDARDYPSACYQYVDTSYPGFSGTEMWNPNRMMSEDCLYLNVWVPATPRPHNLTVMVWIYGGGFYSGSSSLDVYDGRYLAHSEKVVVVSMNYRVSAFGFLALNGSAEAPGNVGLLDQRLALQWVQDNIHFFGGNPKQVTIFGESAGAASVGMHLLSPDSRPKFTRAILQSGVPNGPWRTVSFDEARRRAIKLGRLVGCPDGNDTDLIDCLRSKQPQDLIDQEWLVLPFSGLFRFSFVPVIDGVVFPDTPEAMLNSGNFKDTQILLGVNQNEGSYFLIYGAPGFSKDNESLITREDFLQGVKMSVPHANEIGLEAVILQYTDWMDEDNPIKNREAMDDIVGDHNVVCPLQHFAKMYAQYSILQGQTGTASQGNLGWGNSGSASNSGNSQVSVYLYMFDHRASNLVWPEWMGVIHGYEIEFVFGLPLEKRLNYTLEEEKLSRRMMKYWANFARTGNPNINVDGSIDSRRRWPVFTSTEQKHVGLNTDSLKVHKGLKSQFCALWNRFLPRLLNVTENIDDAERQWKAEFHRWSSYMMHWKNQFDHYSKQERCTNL
T2 sequence (P05067 whole entry, the tested form may be a part): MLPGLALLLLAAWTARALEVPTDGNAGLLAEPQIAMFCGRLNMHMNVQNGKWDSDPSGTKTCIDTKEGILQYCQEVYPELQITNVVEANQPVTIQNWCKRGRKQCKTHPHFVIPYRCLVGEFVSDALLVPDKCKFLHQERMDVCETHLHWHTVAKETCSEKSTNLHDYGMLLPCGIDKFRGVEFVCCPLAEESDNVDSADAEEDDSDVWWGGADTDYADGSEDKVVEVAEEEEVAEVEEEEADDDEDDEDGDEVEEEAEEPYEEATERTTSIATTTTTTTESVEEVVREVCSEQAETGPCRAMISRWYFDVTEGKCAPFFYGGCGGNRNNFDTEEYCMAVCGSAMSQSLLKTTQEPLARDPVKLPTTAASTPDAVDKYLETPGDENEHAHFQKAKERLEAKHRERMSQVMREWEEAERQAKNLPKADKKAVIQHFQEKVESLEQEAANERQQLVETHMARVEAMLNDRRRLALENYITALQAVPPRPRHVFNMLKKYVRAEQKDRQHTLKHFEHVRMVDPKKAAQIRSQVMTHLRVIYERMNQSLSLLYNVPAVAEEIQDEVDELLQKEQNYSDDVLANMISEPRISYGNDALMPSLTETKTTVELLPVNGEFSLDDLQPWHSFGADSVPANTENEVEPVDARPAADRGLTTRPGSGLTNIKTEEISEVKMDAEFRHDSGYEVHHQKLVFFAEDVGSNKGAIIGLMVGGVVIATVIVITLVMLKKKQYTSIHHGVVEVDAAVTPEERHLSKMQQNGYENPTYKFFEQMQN

In general, IC50 refers to the point on the concentration scale where inhibition reaches its midpoint. High values mean a need for much substance, low ones inhibition by little substance. In general, inhibition refers to how much of the control response was suppressed. For the molecule `Cc1ccc(Nc2nc(Nc3cccc(C(F)(F)F)c3)nc(N3CCN(c4cc(C)nc5ncnn45)CC3)n2)cc1`, the IC50 in [1] was found to be 558 nM; in [2], 1750 nM. The inhibition in [3] turned out to be 22.4%.

For `Cc1cc(N2CCN(c3nc(Cl)nc(Nc4ccc(F)cc4)n3)CC2)n2ncnc2n1`, the IC50 in experiment [1] came to 115 nM; in experiment [2], 930 nM; in [4], 15900 nM. For the same molecule, in experiment [3], the inhibition worked out at 64.5%.

What is called Ki is a measure of affinity in units of concentration, obtained from inhibition or displacement. Higher therefore signals a looser hold on the target. With `Cc1cc(N2CCN(c3nc(Cl)nc(Nc4cccc(C(F)(F)F)c4)n3)CC2)n2ncnc2n1`, the IC50 is 65 nM in [1], 1880 nM in [2] and 10400 nM in experiment [4]. Moreover, the Ki in experiment [5] worked out at 69 nM. Besides, the figures for the inhibition in experiment [3] and in [12] were 75.3% and 69.7%, respectively. In addition, the inhibition entry in experiment [6] and in [13] was “Active” each time. Besides, the result in experiment [7], in [8], in experiment [9] and in experiment [11] was Active. Besides, the figures for the Activity in experiment [10] and in experiment [14] were 214 nm and 238 nm, respectively. The Activity (mole fraction) in [15] is greater than 0.9.

For `Cc1cc(N2CCN(c3nc(Nc4cccc(C(F)(F)F)c4)nc(Nc4ccc(F)c(Cl)c4)n3)CC2)n2ncnc2n1`, the IC50 in [1] was 388 nM; in [2] it was 2610 nM; in experiment [4], 16300 nM. Further, in experiment [3], the inhibition amounted to 61.7%.

On to `COc1cc(/C=C/C(=O)CC(=O)/C=C/c2ccc(O)c(OC)c2)ccc1O`, for which the inhibition result in experiment [6] is “Active”. The inhibition in experiment [12] is 60.3%.

For the molecule `Fc1ccc(Nc2nc(Cl)nc(Nc3cccc(C(F)(F)F)c3)n2)cc1Cl`, the IC50 in [1] came to 432 nM; in experiment [2], 3980 nM. Further, the inhibition in experiment [3] is 46.2%.

Regarding `Cc1ccc(Nc2nc(Cl)nc(Nc3cccc(C(F)(F)F)c3)n2)cc1`, the IC50 in experiment [1] was determined as 672 nM; in experiment [2] it was 2090 nM; in experiment [4], 20700 nM. The inhibition in experiment [3] turned out to be 64.8%.

With `COc1ccc(Nc2nc(Cl)nc(Nc3ccc(F)c(Cl)c3)n2)cc1`, the figures for the IC50 in [1], in experiment [2] and in experiment [4] were 705 nM, 1640 nM and 23800 nM, respectively. The inhibition in experiment [3] was determined as 60.7%.

As to `Cc1cc(N2CCN(c3nc(Nc4ccc(F)cc4)nc(Nc4cccc(C(F)(F)F)c4)n3)CC2)n2ncnc2n1`, the IC50 in [1] stood at 724 nM; in experiment [2], 2490 nM; in experiment [4], 18300 nM. Further, in experiment [3], the inhibition turned out to be 54.7%.

In the case of `Cc1ccc(Nc2nc(Nc3ccc(F)c(Cl)c3)nc(N3CCN(c4cc(C)nc5ncnn45)CC3)n2)cc1`, the results for the IC50 in experiment [1], in [2] and in [4] were 859 nM, 3780 nM and 25000 nM, respectively. Further, the inhibition in experiment [3] turned out to be 49.3%.

Turning to `COc1ccc(Nc2nc(Cl)nc(Nc3cccc(C(F)(F)F)c3)n2)cc1`, the IC50 in experiment [1] turned out to be 591 nM; in [2] it was 2960 nM; in experiment [4] it was 17600 nM. The inhibition in experiment [3] is 67.2%.

As for `Fc1ccc(Nc2nc(Cl)nc(Nc3cccc(C(F)(F)F)c3)n2)cc1`, the IC50 in [1] turned out to be 526 nM; in experiment [2], 2450 nM; in experiment [4], 18600 nM. For the same molecule, the inhibition in [3] is 63%.

As to `Fc1ccc(Nc2nc(Cl)nc(Nc3cccc(C(F)(F)F)c3)n2)c(F)c1`, the IC50 in experiment [1] was found to be 496 nM; in experiment [2] it was 4330 nM; in experiment [4] it was 17900 nM. Moreover, the inhibition in [3] stood at 65.2%.

For `Cc1cc(N2CCN(c3nc(Cl)nc(Nc4ccccc4F)n3)CC2)n2ncnc2n1`, the values for the IC50 in experiment [1], in [2] and in [4] were 286 nM, 2230 nM and 13400 nM, respectively. The inhibition in [3] turned out to be 65.8%.

On to `Cc1cc(N2CCN(c3nc(Nc4cccc(C(F)(F)F)c4)nc(NC4CC4)n3)CC2)n2ncnc2n1`, for which the IC50 in experiment [1] was 903 nM; in experiment [2], 1900 nM. Besides, the inhibition in [3] was determined as 44.3%.

For `FC(F)(F)c1cccc(Nc2nc(NC3CC3)nc(N3CCNCC3)n2)c1`, the figures for the IC50 in [1], in experiment [2] and in experiment [4] were 1250 nM, 3650 nM and 23500 nM, respectively. Further, the inhibition in [3] was found to be 58.8%.

For the molecule `Cc1ccc(Nc2nc(Cl)nc(Nc3ccc(F)c(Cl)c3)n2)cc1`, the IC50 in experiment [1] amounted to 917 nM; in experiment [2], 2770 nM; in experiment [4], 18000 nM. Further, the inhibition in experiment [3] turned out to be 62.5%.

For the molecule `COc1ccc(Nc2nc(Cl)nc(N3CCN(c4cc(C)nc5ncnn45)CC3)n2)cc1`, the values for the IC50 in experiment [1], in experiment [2] and in experiment [4] were 92 nM, 1520 nM and 11500 nM, respectively. The molecule also came in with a Ki in experiment [5] of 102 nM. Further, the inhibition in experiment [3] came to 68.5%; in [12], 66.6%. Moreover, the inhibition result in [6] and in [13] was “Active” each time. The result in [7] and in [8] was Active. The Activity in experiment [9] came out at 236 nm; in experiment [11], 234 nm. Moreover, in [15], the Activity (mole fraction) turned out to be 0.96.
